Source: US12233041B2, “Disulfonate stilbenes for use in the treatment of proliferative diseases” (UNIVERSITÉ DE NANTES, priority 2018, dated 2025)
“Also recorded” adds a separate entry of the source.

What was measured:
Rad51 [1] = molecular target: T1, Rad51 (Homo sapiens, UniProt Q06609); assay: DNA invasion by D-loop assay (strand exchange); type: biochemical; conditions: 0.5 μM Rad51, 1 μM 100-ssDNA, 37° C.; read-out: IC50 (RAD51 protein inhibition, D-loop formation)
T1 sequence (Q06609 1-339): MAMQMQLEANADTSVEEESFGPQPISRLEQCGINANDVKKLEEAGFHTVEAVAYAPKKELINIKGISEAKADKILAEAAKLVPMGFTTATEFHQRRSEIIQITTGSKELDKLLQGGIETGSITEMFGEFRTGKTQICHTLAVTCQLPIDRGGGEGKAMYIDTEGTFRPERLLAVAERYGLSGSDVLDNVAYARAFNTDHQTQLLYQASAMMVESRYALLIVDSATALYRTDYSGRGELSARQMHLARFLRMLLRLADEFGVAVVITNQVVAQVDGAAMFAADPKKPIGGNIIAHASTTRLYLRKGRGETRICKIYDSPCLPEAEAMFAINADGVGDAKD
Method: Labeled 100-ssDNA** (1 μM) was incubated with 0.5 μM Rad51 in presence or absence of the indicated amounts of the corresponding molecule in 10 μL of standard reaction buffer containing 20 mM Tris-HCl (pH 8), 1 mM ATP, 1 mM DTT, 1 mM CaCl2) at 37° C. for 20 min. The reaction was initiated by adding supercoiled pPB4.3 DNA (200 μM in bp). After incubation of 30 min at 37° C., the reactions were stopped and deproteinized by a stop solution (10 mM Tris-HCl pH 8, 10 mM MgCl2, 1% SDS, and 1 mg/mL proteinase K. The reaction mixtures were further incubated for 15 min at 37° C. After adding 5-fold loading dye (0.05% bromophenol blue, 8% glycerol, 1 mM EDTA), the reaction products were separated by electrophoresis on 1% agarose gel. The electrophoresis was carried out in 0.5×TAE buffer (20 mM Tris, 10 mM acetic acid and 1 mM EDTA) at 100 V for 2 h. The labeled products (100-ssDNA** and D-loop) were visualized and quantified by the detection of the IRD-700 dye with the 700 nm infrared fluorescent detection channel of an Odyssey Infrared Imager (LI-COR) (Normand, A. et al., Biochemical Pharmacology, October 2014, Vol. 91, No. 3, pp. 293-300).
The “D-loop” in vitro test allows the quantification of the formation of the strand exchange structure (D-loop) and thus the determination of the inhibitory power of a molecule during the strand exchange step of the recombinase mechanism. IC50 measuring the RAD51 protein inhibition in presence of compounds A-1 to A-5, […] and DIDS are then calculated.

[2] = tested on: recombinant fibroblast line RG37; assay: Intracellular homologous recombination (HR), GFP reconstitution after I-SceI cleavage, flow cytometry; type: cell-based; conditions: RG37 cells, 72 h after pCMV-HA-I-SceI transfection; FIG. 3
Method: After transfection with the pCMV-HA-I-SceI plasmid and incubation for 72 h, the cells were collected in PBS and 50 mM EDTA, pelleted and fixed with 2% paraformaledhyde for 20 min. The percentage of GFP-expressing cells was scored by FACS analysis using Cytoflex (Beckman Coulter). At least 3 independent experiments were performed, and HA-I-SceI expression was verified each time by Western blot with rabbit anti-HA antibody (Abcam).
The recombinant fibroblast line RG37 is used to confirm in vitro results (Examples 2-5) in the cellular context. This cellar line comprises two non-functional GFP cassettes, one of which has a unique cleavage site inducible by transfection of a restriction enzyme. After cleavage, which is equivalent to a double-strand break (DSB) of the DNA, the homologous recombination (HR) leads to the reconstitution of a complete GFP cassette thus making the cell fluorescent. The rate of intracellular HR is then determined by measurement in flow cytometry so as to measure the level of HR in cells after treatment with compounds C-3, B-2 and X-2.

Rad51 [3] = molecular target: T1, Rad51; assay: RAD51 nucleofilament formation by Bio-Layer Interferometry (BLItz), binding of Rad51 to ssDNA
Method: The binding of Rad51 to ssDNA was monitored and quantified by Bio-Layer Interferometry technology using the BLItz platform (FortéBio Inc.). The procedure includes four steps: (1) the baseline in buffer A containing 1×PBS, 10 mM MgCl2 and 0.0075% Tween20 was recorded for 20 s; (2) loading and binding of Rad51 were measured for 40 s using 1.5 μM Rad51 and 1 mM ATP in buffer A; (3) the dissociation of Rad51 from ssDNA was recorded for 20 s in buffer A; (4) the ssDNA biosensor was regenerated using baths of 50 mM NaOH. Except for the step 2, which used 4 μL drop of the protein sample, the steps 1, 3 and 4 used 250 μL solutions in 0.5 mL tube. The measurement parameters were as follows: room temperature measurement and stirring speed of 2200 rpm. To investigate the effect of CSB and analogs to the ssDNA binding of Rad51, the molecule was included in the protein sample of the step 2 at the indicated concentrations and incubated for 5 min before loading on the biosensor. (Normand, A. et al., “Identification and characterization of human Rad51 inhibitors by screening of an existing drug library.”, Biochemical Pharmacology, October 2014, Vol. 91, No. 3, pp. 293-300).
A test based on interferometry (Blitz®, Fortebio) allows the measure of the association kinetics of RAD51 protein with a single-stranded DNA immobilized on a biosensor support in the presence or absence of an inhibitor. The effect of compounds B-1, B-2, B-3, BPQ and X-4 on RAD51 nucleofilament formation has been evaluated in presence of increasing doses of inhibitors. The results are presented on FIG. 2.

For `N#Cc1ccc(/C=C/c2ccc(C#N)cc2S(=O)(=O)[O-])c(S(=O)(=O)[O-])c1.[Na+].[Na+]` [B-2, Sodium (E)-6,6′-(ethene-1,2-diyl)bis(3-cyanobenzenesulfonate)], the IC50 (Rad51 [1]) was 5 µM, the “intracellular HR inhibition” value [2] was “significant inhibitory effect” and the “activity on nucleofilament formation compared with reference molecule BPQ” value (Rad51 [3]; FIG. 2) was “comparable to or even better”. For the same compound, the “effect on nucleofilament formation compared with DIDS” value (Rad51 [3]; high dose (50 μM)) was “same effect”, the “formation of RAD51 protein nucleofilament (relative binding of RAD51 protein with single-stranded DNA)” value (Rad51 [3]; increasing doses of inhibitors, FIG. 2) was “inhibit; also recorded: very strongly diminished” and the “activity on nucleofilament formation compared with reference molecule DIDS” value (Rad51 [3]; low dose (5 μM)) was “comparable”.
